c1ccc2c(c1)sc1ccccc12
solubility (mole fraction)
Details	in acetonitrile	in methanol
278.15 K	0.00126	0.00454
283.15 K	0.00163	0.00611
288.65 K	0.00192	0.00845
293.15 K	0.00242	0.0118
298.15 K	0.0029	0.0152
303.15 K	0.00331	0.0189
308.15 K	0.00406	0.0241
313.15 K	0.00478	0.0321
318.15 K	0.0056	0.0402
323.15 K	0.00668	0.0506
328.15 K	0.00782	0.0639
333.15 K	0.00917	0.0839
